Laboratory results from paper PMC8708390, “Fatty Acid Modification of the Anticancer Peptide LVTX-9 to Enhance Its Cytotoxicity against Malignant Melanoma Cells” (Toxins, 2021).
Where no end group is shown, it is not given here.

Key:
B16-F10 cells [1] = assay: CCK-8 cell viability assay, B16-F10 cells; format: cell-based, mouse; settings: 50 μM, 24 h of treatment, serum-free medium (Figure 3B)
Procedure: Mouse skin melanoma cells (B16-F10) were cultured in RPMI-1640 (Gibco), and mouse fibroblast cells (L-929), human lung carcinoma cells (A549), mouse breast cells (4T1), human hepatocarcinoma cells (HepG2), and human cervical carcinoma cells (Hela) were cultured in Dulbecco’s Modified Eagle Medium (DMEM, Gibco). All culture medium contained 10% fetal bovine serum (serum, Gibco), 100 U/mL of penicillin, and […] of streptomycin at 37 °C with 5% CO2.
Cell viability was quantified using a CCK-8 assay. At first, cells were seeded into a 96-well plate at approximately 2 × 10^3 cells/well. The following day, we created a 2-fold dilution series of each peptide using fresh medium (with or without 10% serum) for the treated cells, and cell viability was detected at 450 nm via a CCK-8 assay using an Absorbance Microplate Reader (BioTek Instruments, Winooski, VT, USA) following 24 h of drug incubation. The activity curves and IC50 values of the peptides were visualized using GraphPad prism 5.0.

B16-F10 cells [2] = assay: Trypan blue staining; format: cell-based, mouse; settings: 50 μM, 24 h, 0.04% trypan blue 4 min
Procedure: B16-F10 cells were seeded into a 48-well plate (2 × 10^3 cells/well) for 24 h and treated with LVTX-9 (50 μM) and LVTX-9-C18 (5 μM) for 24 h. The cells were washed with PBS gently and stained with 0.04% Trypan blue for 4 min. Dead cells were stained blue.

[3] = Circular dichroism secondary structure; format: physicochemical; settings: 100 µM, 25 °C, 180-280 nm
Procedure: Dynamic light scattering (DLS) of Zetasizer Nano ZSP (Malvern Instruments, Malvern, UK) apparatus was used to determine the hydrodynamic size and zeta potential of LVTX-9 and LVTX-9-C18. The peptides concentrations were diluted to 100 µM with ultrapure water with a final volume of 1 mL. The procedure ran at 25 °C, with each experiment repeated three times. The secondary structures of LVTX-9 and LVTX-9-C18 were determined to be in line with the previous protocol. The peptide concentrations were then diluted to 100 µM with ultrapure water and 100 mM of SDS was added in a final volume of 250 μL. The procedure was carried out at 25 °C. CD spectra were recorded between 180 nm and 280 nm on a Jasco J-815 CD spectrometer.

B16-F10 tumor spheroids = assay: Toxicity in 3D tumor spheroids; format: cell-based, mouse; settings: 50 or 25 μM, RPMI-1640 with 10% serum, 3 days
Procedure: To further study the toxicity of LVTX-9 and LVTX-9-C18 in vitro, B16-F10 tumor spheroids, as 3D tumor models, were cultured according to protocols in the literature. Briefly, B16-F10 cells were seeded into an ultra-low attachment, 96-well, round-bottom plate (Corning) and cultured at 37 °C for 3–4 days. Then, the B16-F10 tumor spheroids were treated with 50 or 25 μM of LVTX-9 and 20 or 10 μM of LVTX-9-C18 in the RPMI-1640 supplied with 10% serum for 3 days. Subsequently, images were taken on days 0 and 3, and the cell viability was measured using a CellTiter-Glo 3D Cell Viability Assay (G9683).

Substance: ASIGALIQKAIALIKAKAA-NH2 (C-terminus assumed) [LVTX-9]
- effect on cell viability at 50 μM (B16-F10 cells [1]): no significant effect on cell viability
- trypan blue staining at 50 μM (B16-F10 cells [2]): almost unstained
- secondary structure (CD) in 100 mM of SDS ([3]; 100 mM SDS): α-helical conformation
- secondary structure (CD) in ultrapure water ([3]; ultrapure water): random coil conformation
- growth of B16-F10 tumor spheroids at 50 or 25 μM (B16-F10 tumor spheroids): gradually grew
